Patent US7709471B2, “Compounds” (AstraZeneca AB, priority 2006, dated 2010)

What was measured:
[1] = test system: human colon tumour cell line HT29; assay: Cellular Assay (phosphohistone H3 Ser10 mitotic marker, HT29); type: cell-based; conditions: HT-29, 24 h, HT29 cells, read-out: IC50 (cellular assay, phosphohistone H3)
Procedure: Chromosome condensation in mitosis is accompanied by phosphorylation of histone H3 on serine 10.
After 24 hours, cells were fixed in 3.7% (v/v) formaldehyde then permeabilised and blocked for 10 minutes in 100 μl 0.5% (v/v) Triton X-100, 1% (w/v) bovine serum albumin (BSA) in phosphate buffered saline (PBS). […] The raw assay data were analysed by non-linear regression analysis and used to determine an IC50 value for each compound.

[2] = molecular target: recombinant Plk1 (Homo sapiens, UniProt P53350); assay: In Vitro Plk1 Enzyme Assay (SPA, GST-Cdc25C phosphorylation); type: biochemical; conditions: ATP 64 nM, 90 minutes, read-out: IC50 (Plk1 enzyme inhibition)
recombinant Plk1, sequence (P53350 whole entry): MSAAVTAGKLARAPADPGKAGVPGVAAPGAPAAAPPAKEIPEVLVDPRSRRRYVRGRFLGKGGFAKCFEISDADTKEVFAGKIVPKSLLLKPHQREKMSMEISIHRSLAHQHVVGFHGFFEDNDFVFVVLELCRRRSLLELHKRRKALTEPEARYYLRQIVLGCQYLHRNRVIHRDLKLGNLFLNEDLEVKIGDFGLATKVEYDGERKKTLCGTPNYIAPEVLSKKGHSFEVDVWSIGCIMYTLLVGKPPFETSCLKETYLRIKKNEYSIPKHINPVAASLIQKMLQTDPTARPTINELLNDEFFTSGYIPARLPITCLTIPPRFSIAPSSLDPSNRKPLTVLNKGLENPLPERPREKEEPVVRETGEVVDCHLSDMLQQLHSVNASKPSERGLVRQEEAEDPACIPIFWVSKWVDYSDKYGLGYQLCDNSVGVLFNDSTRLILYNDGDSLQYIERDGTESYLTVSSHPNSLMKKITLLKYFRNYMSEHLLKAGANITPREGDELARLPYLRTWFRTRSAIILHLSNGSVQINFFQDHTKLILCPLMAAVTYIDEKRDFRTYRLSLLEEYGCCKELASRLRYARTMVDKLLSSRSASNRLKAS

Structure (SMILES) | IC50 [1] [nM] | IC50 [2] [nM]
CCOc1cc(C(=O)NC2CCN(C)CC2)ccc1Nc1ncc2c(n1)N(C(C)C)CCC(=O)N2C [Example 281, 3-ethoxy-4-[(6-methyl-5-oxo-2-propan-2-yl-2,6,9,11-tetrazabicyclo[5.4.0]undeca-7,9,11-trien-10-yl)amino]-N-(1-methyl-4-piperidyl)benzamide] | < 1000 | < 300
CCOc1cc(C(=O)NC2CCN(CC)CC2)ccc1Nc1ncc2c(n1)N(C(C)C)CCC(=O)N2C [Example 282, 3-ethoxy-N-(1-ethyl-4-piperidyl)-4-[(6-methyl-5-oxo-2-propan-2-yl-2,6,9,11-tetrazabicyclo[5.4.0]undeca-7,9,11-trien-10-yl)amino]benzamide] | < 1000 | < 1000
CCOc1cc(C(=O)N[C@H]2C[C@H]3CCC[C@@H](C2)N3C)ccc1Nc1ncc2c(n1)N(C(C)C)CCC(=O)N2C [Example 283, 3-ethoxy-N-[(1S,5R)-9-methyl-9-azabicyclo[3.3.1]non-7-yl]-4-[(6-methyl-5-oxo-2-propan-2-yl-2,6,9,11-tetrazabicyclo[5.4.0]undeca-8,10,12-trien-10-yl)amino]benzamide] | < 300 | < 300
CCCN1CCC(NC(=O)c2ccc(Nc3ncc4c(n3)N(C3CCCC3)CCC(=O)N4C)c(OC)c2)CC1 [Example 314, 4-[(2-cyclopentyl-6-methyl-5-oxo-2,6,9,11-tetrazabicyclo[5.4.0]undeca-7,9,11-trien-10-yl)amino]-3-methoxy-N-(1-propyl-4-piperidyl)benzamide] | < 300 | < 300
CN(C)CCNC(=O)c1ccc(Nc2ncc3c(n2)N(C2CCCC2)CCC(=O)N3C)c(Cl)c1 [Example 315, 3-chloro-4-[(2-cyclopentyl-6-methyl-5-oxo-2,6,9,11-tetrazabicyclo[5.4.0]undeca-7,9,11-trien-10-yl)amino]-N-(2-dimethylaminoethyl)benzamide] | < 300 | < 300
CCN1CCC(NC(=O)c2ccc(Nc3ncc4c(n3)N(C3CCCC3)CCC(=O)N4C)c(Cl)c2)CC1 [Example 316, 3-chloro-4-[(2-cyclopentyl-6-methyl-5-oxo-2,6,9,11-tetrazabicyclo[5.4.0]undeca-7,9,11-trien-10-yl)amino]-N-(1-ethyl-4-piperidyl)benzamide] | < 300 | < 300
CN(C)CCCNC(=O)c1ccc(Nc2ncc3c(n2)N(C2CCCC2)CCC(=O)N3C)c(Cl)c1 [Example 317, 3-chloro-4-[(2-cyclopentyl-6-methyl-5-oxo-2,6,9,11-tetrazabicyclo[5.4.0]undeca-7,9,11-trien-10-yl)amino]-N-(3-dimethylaminopropyl)benzamide] | < 300 | < 300
CN1C(=O)CCN(C2CCCC2)c2nc(Nc3ccc(C(=O)NCCN4CCCC4)cc3Cl)ncc21 [Example 318, 3-chloro-4-[(2-cyclopentyl-6-methyl-5-oxo-2,6,9,11-tetrazabicyclo[5.4.0]undeca-7,9,11-trien-10-yl)amino]-N-(2-pyrrolidin-1-ylethyl)benzamide] | < 300 | < 300
COc1cc(C(=O)NC2CCN(CC3CC3)CC2)ccc1Nc1ncc2c(n1)N(C1CCCC1)CCC(=O)N2C [Example 319, 4-[(2-cyclopentyl-6-methyl-5-oxo-2,6,9,11-tetrazabicyclo[5.4.0]undeca-7,9,11-trien-10-yl)amino]-N-[1-(cyclopropylmethyl)-4-piperidyl]-3-methoxy-benzamide] | < 300 | < 300
COc1cc(C(=O)NC2CCN(C)CC2)c(Cl)cc1Nc1ncc2c(n1)N(C1CCCC1)CCC(=O)N2C [Example 320, 2-chloro-4-[(2-cyclopentyl-6-methyl-5-oxo-2,6,9,11-tetrazabicyclo[5.4.0]undeca-7,9,11-trien-10-yl)amino]-5-methoxy-N-(1-methyl-4-piperidyl)benzamide] | < 300 | < 300
CN1C(=O)CCN(C2CCCC2)c2nc(Nc3cc(F)c(C(=O)N[C@@H]4CCNC4)cc3Cl)ncc21 [Example 321, 5-chloro-4-[(2-cyclopentyl-6-methyl-5-oxo-2,6,9,11-tetrazabicyclo[5.4.0]undeca-7,9,11-trien-10-yl)amino]-2-fluoro-N-[(3R)-pyrrolidin-3-yl]benzamide] | < 300 | < 300
CN1CCC(NC(=O)c2cc(Cl)c(Nc3ncc4c(n3)N(C3CCCC3)CCC(=O)N4C)cc2F)CC1 [Example 322, 5-chloro-4-[(2-cyclopentyl-6-methyl-5-oxo-2,6,9,11-tetrazabicyclo[5.4.0]undeca-7,9,11-trien-10-yl)amino]-2-fluoro-N-(1-methyl-4-piperidyl)benzamide] | < 300 | < 300
CCN1CCC(NC(=O)c2cc(Cl)c(Nc3ncc4c(n3)N(C3CCCC3)CCC(=O)N4C)cc2F)CC1 [Example 323, 5-chloro-4-[(2-cyclopentyl-6-methyl-5-oxo-2,6,9,11-tetrazabicyclo[5.4.0]undeca-7,9,11-trien-10-yl)amino]-N-(1-ethyl-4-piperidyl)-2-fluoro-benzamide] | < 300 | < 1000
CN1CC[C@@H](NC(=O)c2cc(Cl)c(Nc3ncc4c(n3)N(C3CCCC3)CCC(=O)N4C)cc2F)C1 [Example 325, 5-chloro-4-[(2-cyclopentyl-6-methyl-5-oxo-2,6,9,11-tetrazabicyclo[5.4.0]undeca-7,9,11-trien-10-yl)amino]-2-fluoro-N-[(3R)-1-methylpyrrolidin-3-yl]benzamide] | < 300 | < 300
CCN1CC[C@@H](NC(=O)c2ccc(Nc3ncc4c(n3)N(C3CCCC3)CCC(=O)N4C)c(OC)c2)C1 [Example 326, 4-[(2-cyclopentyl-6-methyl-5-oxo-2,6,9,11-tetrazabicyclo[5.4.0]undeca-7,9,11-trien-10-yl)amino]-N-[(3R)-1-ethylpyrrolidin-3-yl]-3-methoxy-benzamide] | < 300 | < 300
CCCN1CC[C@@H](NC(=O)c2ccc(Nc3ncc4c(n3)N(C3CCCC3)CCC(=O)N4C)c(OC)c2)C1 [Example 327, 4-[(2-cyclopentyl-6-methyl-5-oxo-2,6,9,11-tetrazabicyclo[5.4.0]undeca-7,9,11-trien-10-yl)amino]-3-methoxy-N-[(3R)-1-propylpyrrolidin-3-yl]benzamide] | < 300 | < 300
COCCN1CC[C@@H](NC(=O)c2ccc(Nc3ncc4c(n3)N(C3CCCC3)CCC(=O)N4C)c(OC)c2)C1 [Example 328, 4-[(2-cyclopentyl-6-methyl-5-oxo-2,6,9,11-tetrazabicyclo[5.4.0]undeca-7,9,11-trien-10-yl)amino]-3-methoxy-N-[(3R)-1-(2-methoxyethyl)pyrrolidin-3-yl]benzamide] | < 300 | < 300
CCN1CCC(NC(=O)c2ccc(Nc3ncc4c(n3)N(C3CCCC3)CC3(CC3)C(=O)N4C)c(Cl)c2)CC1 [Example 382, 3-chloro-4-(9′-cyclopentyl-5′-methyl-6′-oxo-5′,6′,8′,9′-tetrahydrospiro[cyclopropane-1,7′-pyrimido[5,4-b][1,4]diazepine]-2′-ylamino)-N-(1-ethylpiperidin-4-yl)benzamide] | < 300 | < 300
